Experimental data as given in the OPERA property sets (Mansouri et al. 2018).
Converted amounts (≈) assume the structure as drawn.

Details: 25 °C

Compound | solubility
Cc1ccc2ccc(C)nc2c1 | 11.4 mM (≈ 1790 µg/mL)
Nc1ccc(S(=O)(=O)Nc2nccs2)cc1 | 3.76 mM (≈ 960 µg/mL)
Ic1cccc2ccccc12 | 0.0282 mM (≈ 7.16 µg/mL)
O=C(O)c1ccsc1 | 33.6 mM (≈ 4300 µg/mL)
S=C=NCc1ccccc1 | 0.73 mM (≈ 109 µg/mL)
O=c1cc[nH]c(=O)[nH]1 | 32.1 mM (≈ 3600 µg/mL)
O=C(O)CCI | 372 mM (≈ 74300 µg/mL)
Oc1ccc(-c2ccccc2)cc1 | 0.33 mM (≈ 56.2 µg/mL)
Nc1ccc(S(=O)(=O)Nc2ncccn2)cc1 | 0.308 mM (≈ 77 µg/mL)
CCC(C)c1cc([N+](=O)[O-])cc([N+](=O)[O-])c1OC(C)=O (stereo unspecified) | 7.79 mM (≈ 2200 µg/mL)
CCCCCCCCCCCCCCCCCC | 2.36e-05 mM (≈ 0.006 µg/mL)
C=CCC1(CC(C)C)C(=O)NC(=O)NC1=O | 7.6 mM (≈ 1700 µg/mL)
CC1(C)C(=O)[C@@]2(C)CC[C@@H]1C2 | 14.1 mM (≈ 2150 µg/mL)
CC(=O)OCC(C)C | 54.2 mM (≈ 6300 µg/mL)
C1=CCCCCC1 | 0.686 mM (≈ 66 µg/mL)
c1ccc2c(c1)Cc1c-2ccc2ccccc12 | 0.00021 mM (≈ 0.0454 µg/mL)
Cc1cc(=O)[nH]c(=S)[nH]1 | 3.75 mM (≈ 533 µg/mL)
Cc1cccc(C)c1NC(=O)c1cc(S(N)(=O)=O)c(Cl)cc1O | 0.163 mM (≈ 58 µg/mL)
Nc1ncnc2[nH]cnc12 | 7.62 mM (≈ 1030 µg/mL)
CC(=O)Nc1ccccc1 | 51.3 mM (≈ 6930 µg/mL)
FC(F)(F)C(F)(F)F | 0.0564 mM (≈ 7.78 µg/mL)
C=CC#N | 1400 mM (≈ 74500 µg/mL)

Compound | solubility
Nc1ccc(-c2ccc(N)cc2)cc1 | 1.75 mM (≈ 322 µg/mL)
Clc1cc(Cl)cc(Cl)c1 | 0.0331 mM (≈ 6.01 µg/mL)
Cc1ccc(N=C=S)cc1 | 0.019 mM (≈ 2.83 µg/mL)
O=C(O)C(=O)Nc1ccccc1 | 49.9 mM (≈ 8240 µg/mL)
CCC#CCC | 6.8 mM (≈ 559 µg/mL)
Cc1ccc(-c2ccccc2)cc1 | 0.0241 mM (≈ 4.05 µg/mL)
Ic1ccc(I)cc1 | 0.00424 mM (≈ 1.4 µg/mL)
CC(C(=O)O)C(=O)O | 5750 mM (≈ 679000 µg/mL)
CCC(C)(C)c1ccc(O)cc1 | 1.02 mM (≈ 168 µg/mL)
CN(C)[C@@H]1C(O)=C(C(N)=O)C(=O)[C@@]2(O)C(O)=C3C(=O)c4c(O)cccc4[C@@](C)(O)[C@H]3[C@H](O)[C@@H]12 | 0.68 mM (≈ 313 µg/mL)
C=C(C)C | 4.69 mM (≈ 263 µg/mL)
O=C(O)c1cccc(O)c1 | 52.5 mM (≈ 7250 µg/mL)
CC(C)C(C)C | 0.261 mM (≈ 22.5 µg/mL)
CCCCCCCCN | 1.55 mM (≈ 200 µg/mL)
CCCCP(=O)(CCCC)CCCC | 255 mM (≈ 55700 µg/mL)
C#CCC | 53.1 mM (≈ 2870 µg/mL)
O=C(O)c1cccc(F)c1 | 10.7 mM (≈ 1500 µg/mL)
COc1ccc2c(c1)N(C[C@H](C)CN(C)C)c1ccccc1S2 | 0.0609 mM (≈ 20 µg/mL)
CC1=CCCCC1 | 0.541 mM (≈ 52 µg/mL)
CCCCC(N)C(=O)O (racemic) | 88.5 mM (≈ 11600 µg/mL)
Oc1c2ccccc2cc2ccccc12 | 0.0185 mM (≈ 3.59 µg/mL)
CC1CCC(C(C)C)C(O)C1 (stereo unspecified) | 2.91 mM (≈ 455 µg/mL)

Compound | solubility
CCCCC(C)O (stereo unspecified) | 134 mM (≈ 13700 µg/mL)
CC(C)(C)C(=O)C1C(=O)c2ccccc2C1=O | 0.0782 mM (≈ 18 µg/mL)
O=C(O)c1cc(=O)cc(C(=O)O)o1 | 77.7 mM (≈ 14300 µg/mL)
O=c1cc[nH]c(=S)[nH]1 | 5.53 mM (≈ 709 µg/mL)
O=C(O)c1cccc(Br)c1 | 2 mM (≈ 402 µg/mL)
CC(=O)[C@@]1(C)CC[C@H]2[C@@H]3C=C(C)C4=CC(=O)CC[C@]4(C)[C@H]3CC[C@@]21C | 0.00534 mM (≈ 1.82 µg/mL)
O=C(O)c1cccnc1Nc1cccc(C(F)(F)F)c1 | 0.0673 mM (≈ 19 µg/mL)
C#CCCCC#C | 17.5 mM (≈ 1610 µg/mL)
Clc1ccc(-c2ccccc2)c(Cl)c1 | 0.00515 mM (≈ 1.15 µg/mL)
Cc1ccc2cc(C)ccc2c1 | 0.0128 mM (≈ 2 µg/mL)
C(=C\c1ccccc1)/c1ccccc1 | 0.00161 mM (≈ 0.291 µg/mL)
O=C(O)COc1ccc(Cl)c(Cl)c1 | 2.07 mM (≈ 457 µg/mL)
CCCCCCCC=O | 4.37 mM (≈ 560 µg/mL)
c1cc2ccc3ccc4ccc5cccc6c(c1)c2c3c4c56 | 9.41e-07 mM (≈ 0.00026 µg/mL)
O=C(Oc1ccccc1)c1ccccc1O | 0.7 mM (≈ 150 µg/mL)
CCCCC(C)C | 0.0253 mM (≈ 2.54 µg/mL)
O=[N+]([O-])c1ccccc1O | 18 mM (≈ 2500 µg/mL)
c1cc2cccc3c4cccc5cccc(c(c1)c23)c54 | 1.59e-06 mM (≈ 0.0004 µg/mL)
c1ccc(-c2ccccc2-c2ccccc2)cc1 | 0.00538 mM (≈ 1.24 µg/mL)
Cc1cccc(O)c1C | 37.4 mM (≈ 4570 µg/mL)
CC(C)[C@@H](N)C(=O)O (racemic) | 563 mM (≈ 66000 µg/mL)

Same assay, conditions: 27 °C

Compound | solubility
c1cc2c3c(c1)ccc1cccc(c13)C2 | 0.00578 mM (≈ 1.1 µg/mL)
Cc1cc2c3ccccc3ccc2c2ccccc12 | 0.000268 mM (≈ 0.065 µg/mL)
C#C[C@]1(O)CC[C@H]2[C@@H]3CCC4=CC(=O)CC[C@]4(C)[C@H]3CC[C@@]21C | 0.0022 mM (≈ 0.687 µg/mL)

Same assay, conditions: 28 °C

Compound | solubility
CCOC(=O)[C@H](Cc1ccc(O)cc1)NC(C)=O | 13.8 mM (≈ 3480 µg/mL)

Same assay, conditions: 30 °C

Compound | solubility
COc1ccccc1C(=O)O | 32.9 mM (≈ 5000 µg/mL)
CCCCCCCCCCC(=O)O | 0.28 mM (≈ 52.2 µg/mL)
CCOC(=O)C1(c2ccccc2)CCN(C)CC1 | 13 mM (≈ 3220 µg/mL)
Cc1cccc([N+](=O)[O-])c1 | 3.65 mM (≈ 500 µg/mL)
CC(=O)Nc1nnc(S(N)(=O)=O)s1 | 4.41 mM (≈ 980 µg/mL)
C=CCCCCCCCCC(=O)O | 0.4 mM (≈ 73.7 µg/mL)
COP1(=S)OCc2ccccc2O1 (stereo unspecified) | 0.268 mM (≈ 58 µg/mL)
CCCCC(=O)CCCC | 2.55 mM (≈ 363 µg/mL)
Cc1ccc(S(=O)(=O)NC(=O)NN2CCCCCC2)cc1 | 0.21 mM (≈ 65.4 µg/mL)
O=C(O)CCCCCCCCCCBr | 0.2 mM (≈ 53 µg/mL)
CC1=CC(=O)c2ccccc2C1=O | 0.929 mM (≈ 160 µg/mL)
CC(C)CCC[C@@H](C)[C@H]1CC[C@H]2[C@@H]3CC=C4C[C@@H](O)CC[C@]4(C)[C@H]3CC[C@]12C | 0.000246 mM (≈ 0.095 µg/mL)
